Data as given in ChEMBL document CHEMBL1135305, “Enantiospecific, selective cyclooxygenase-2 inhibitors” (Bioorg Med Chem Lett, 2002).

Tests used:
[1] = target: T1, Prostaglandin G/H synthase 2 (Homo sapiens, UniProt P35354); test: Inhibitory concentration against human prostaglandin G/H synthase 2
T1 sequence (P35354 whole entry): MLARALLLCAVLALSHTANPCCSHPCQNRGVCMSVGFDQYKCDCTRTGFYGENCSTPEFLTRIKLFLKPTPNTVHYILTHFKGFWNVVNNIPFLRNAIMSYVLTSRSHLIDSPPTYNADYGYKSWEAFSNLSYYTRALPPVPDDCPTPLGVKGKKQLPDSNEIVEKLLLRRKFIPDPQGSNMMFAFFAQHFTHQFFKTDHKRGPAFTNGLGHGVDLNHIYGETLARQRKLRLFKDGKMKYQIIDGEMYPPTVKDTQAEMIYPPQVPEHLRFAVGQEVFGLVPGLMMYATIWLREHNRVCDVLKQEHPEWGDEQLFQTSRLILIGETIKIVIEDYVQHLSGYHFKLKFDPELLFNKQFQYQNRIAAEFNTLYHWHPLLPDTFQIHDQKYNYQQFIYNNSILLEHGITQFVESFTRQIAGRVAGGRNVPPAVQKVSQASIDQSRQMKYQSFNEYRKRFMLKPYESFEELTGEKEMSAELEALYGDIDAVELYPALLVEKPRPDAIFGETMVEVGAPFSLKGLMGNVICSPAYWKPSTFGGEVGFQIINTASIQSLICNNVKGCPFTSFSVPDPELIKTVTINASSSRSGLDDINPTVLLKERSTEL

[2] = target: T2, Prostaglandin G/H synthase 1 (Ovis aries, UniProt P05979)
T2 sequence (P05979 whole entry): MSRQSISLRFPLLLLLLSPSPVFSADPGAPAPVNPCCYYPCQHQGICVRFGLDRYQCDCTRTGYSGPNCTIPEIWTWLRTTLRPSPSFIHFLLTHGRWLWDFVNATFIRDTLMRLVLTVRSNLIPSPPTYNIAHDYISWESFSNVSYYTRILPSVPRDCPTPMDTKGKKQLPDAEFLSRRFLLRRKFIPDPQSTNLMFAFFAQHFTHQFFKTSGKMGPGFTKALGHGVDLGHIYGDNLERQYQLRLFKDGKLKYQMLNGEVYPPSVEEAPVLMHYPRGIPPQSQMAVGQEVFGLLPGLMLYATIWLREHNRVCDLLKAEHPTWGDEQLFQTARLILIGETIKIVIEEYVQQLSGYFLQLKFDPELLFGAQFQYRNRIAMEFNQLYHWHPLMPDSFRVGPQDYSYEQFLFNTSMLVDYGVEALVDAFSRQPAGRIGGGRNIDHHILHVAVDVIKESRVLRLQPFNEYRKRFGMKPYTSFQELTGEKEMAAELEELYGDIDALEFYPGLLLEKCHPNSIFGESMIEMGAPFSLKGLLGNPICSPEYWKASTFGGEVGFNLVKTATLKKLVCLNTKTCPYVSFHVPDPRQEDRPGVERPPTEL
Description: Inhibitory concentration against prostaglandin G/H synthase 1

[3] = target: T3, Prostaglandin G/H synthase 2 (Mus musculus, UniProt Q05769); test: Inhibitory concentration against V5231, mutant murine Prostaglandin G/H synthase 2
[4] = target: Prostaglandin G/H synthase 2 (Mus musculus, UniProt Q05769, S105V/Y101L); test: Inhibitory concentration against Y115L/S119V mutant murine Prostaglandin G/H synthase 2
Chain of Prostaglandin G/H synthase 2 (Mus musculus, UniProt Q05769, S105V/Y101L) (Q05769 18-604 Y101L/S105V limits assumed): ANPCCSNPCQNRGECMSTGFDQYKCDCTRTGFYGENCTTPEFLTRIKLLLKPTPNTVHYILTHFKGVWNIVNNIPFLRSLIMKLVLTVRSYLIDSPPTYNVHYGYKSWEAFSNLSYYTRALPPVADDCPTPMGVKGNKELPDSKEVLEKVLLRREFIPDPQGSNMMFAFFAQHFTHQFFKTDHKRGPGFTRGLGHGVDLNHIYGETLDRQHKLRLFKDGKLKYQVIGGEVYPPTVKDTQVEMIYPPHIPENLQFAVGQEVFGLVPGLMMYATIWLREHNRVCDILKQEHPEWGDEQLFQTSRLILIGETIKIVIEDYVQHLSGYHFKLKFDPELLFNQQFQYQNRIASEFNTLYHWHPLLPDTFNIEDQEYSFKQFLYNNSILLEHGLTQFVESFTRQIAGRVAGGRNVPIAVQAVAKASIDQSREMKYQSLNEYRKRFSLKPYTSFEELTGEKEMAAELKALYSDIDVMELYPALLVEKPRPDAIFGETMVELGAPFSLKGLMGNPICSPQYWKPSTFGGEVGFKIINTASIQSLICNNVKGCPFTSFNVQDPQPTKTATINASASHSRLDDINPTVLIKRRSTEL

[5] = target: Prostaglandin G/H synthase 2 (Mus musculus, UniProt Q05769, S516A); test: Inhibitory concentration against S530A mutant murine Prostaglandin G/H synthase 2
Chain of Prostaglandin G/H synthase 2 (Mus musculus, UniProt Q05769, S516A) (Q05769 18-604 S516A limits assumed): as the sequence (Q05769 18-604 Y101L/S105V limits assumed) above, with L84Y, V88S, S499A counted along it

[6] = target: Prostaglandin G/H synthase 2 (Mus musculus, UniProt Q05769, I92L); test: Inhibitory concentration against I92L mutant murine Prostaglandin G/H synthase 2
[7] = target: Prostaglandin G/H synthase 2 (Mus musculus, UniProt Q05769, S105V); test: Inhibitory concentration against S119V mutant murine Prostaglandin G/H synthase 2
Chain of Prostaglandin G/H synthase 2 (Mus musculus, UniProt Q05769, S105V) (Q05769 18-604 S105V limits assumed): as the sequence (Q05769 18-604 Y101L/S105V limits assumed) above, with L84Y counted along it

[8] = target: Prostaglandin G/H synthase 2 (Mus musculus, UniProt Q05769, E510L); test: Inhibitory concentration against E524L mutant murine Prostaglandin G/H synthase 2
Chain of Prostaglandin G/H synthase 2 (Mus musculus, UniProt Q05769, E510L) (Q05769 18-604 E510L limits assumed): as the sequence (Q05769 18-604 Y101L/S105V limits assumed) above, with L84Y, V88S, E493L counted along it

[9] = target: Prostaglandin G/H synthase 2 (Mus musculus, UniProt Q05769, Y101L); test: Inhibitory concentration against Y115L mutant murine Prostaglandin G/H synthase 2
Chain of Prostaglandin G/H synthase 2 (Mus musculus, UniProt Q05769, Y101L) (Q05769 18-604 Y101L limits assumed): as the sequence (Q05769 18-604 Y101L/S105V limits assumed) above, with V88S counted along it

[10] = target: T3, Prostaglandin G/H synthase 2; test: Inhibitory concentration against V891 mutant murine Prostaglandin G/H synthase 2
[11] = target: Prostaglandin G/H synthase 2 (Mus musculus, UniProt Q05769, R106Q); test: Inhibitory concentration against R120Q mutant murine Prostaglandin G/H synthase 2
Chain of Prostaglandin G/H synthase 2 (Mus musculus, UniProt Q05769, R106Q) (Q05769 18-604 R106Q limits assumed): as the sequence (Q05769 18-604 Y101L/S105V limits assumed) above, with L84Y, V88S, R89Q counted along it

[12] = target: Prostaglandin G/H synthase 2 (Mus musculus, UniProt Q05769, R106A); test: Inhibitory concentration against R120A mutant murine Prostaglandin G/H synthase 2
Chain of Prostaglandin G/H synthase 2 (Mus musculus, UniProt Q05769, R106A) (Q05769 18-604 R106A limits assumed): as the sequence (Q05769 18-604 Y101L/S105V limits assumed) above, with L84Y, V88S, R89A counted along it

[13] = target: Prostaglandin G/H synthase 2 (Mus musculus, UniProt Q05769, H122N); test: Inhibitory concentration against H122N mutant murine Prostaglandin G/H synthase 2
[14] = target: T3, Prostaglandin G/H synthase 2; test: Inhibitory concentration against VRV, mutant murine Prostaglandin G/H synthase 2
[15] = target: Prostaglandin G/H synthase 2 (Mus musculus, UniProt Q05769, L489F); test: Inhibitory concentration against L503F mutant murine Prostaglandin G/H synthase 2
Chain of Prostaglandin G/H synthase 2 (Mus musculus, UniProt Q05769, L489F) (Q05769 18-604 L489F limits assumed): as the sequence (Q05769 18-604 Y101L/S105V limits assumed) above, with L84Y, V88S, L472F counted along it

[16] = target: Prostaglandin G/H synthase 2 (Mus musculus, UniProt Q05769, F343L); test: Inhibitory concentration against F357L mutant murine Prostaglandin G/H synthase 2
Chain of Prostaglandin G/H synthase 2 (Mus musculus, UniProt Q05769, F343L) (Q05769 18-604 F343L limits assumed): as the sequence (Q05769 18-604 Y101L/S105V limits assumed) above, with L84Y, V88S, F326L counted along it

[17] = target: T4, Prostaglandin G/H synthase 2 (Mus musculus, UniProt Q05769); test: Inhibitory concentration against wild type murine Prostaglandin G/H synthase 2
T4 sequence (Q05769 whole entry): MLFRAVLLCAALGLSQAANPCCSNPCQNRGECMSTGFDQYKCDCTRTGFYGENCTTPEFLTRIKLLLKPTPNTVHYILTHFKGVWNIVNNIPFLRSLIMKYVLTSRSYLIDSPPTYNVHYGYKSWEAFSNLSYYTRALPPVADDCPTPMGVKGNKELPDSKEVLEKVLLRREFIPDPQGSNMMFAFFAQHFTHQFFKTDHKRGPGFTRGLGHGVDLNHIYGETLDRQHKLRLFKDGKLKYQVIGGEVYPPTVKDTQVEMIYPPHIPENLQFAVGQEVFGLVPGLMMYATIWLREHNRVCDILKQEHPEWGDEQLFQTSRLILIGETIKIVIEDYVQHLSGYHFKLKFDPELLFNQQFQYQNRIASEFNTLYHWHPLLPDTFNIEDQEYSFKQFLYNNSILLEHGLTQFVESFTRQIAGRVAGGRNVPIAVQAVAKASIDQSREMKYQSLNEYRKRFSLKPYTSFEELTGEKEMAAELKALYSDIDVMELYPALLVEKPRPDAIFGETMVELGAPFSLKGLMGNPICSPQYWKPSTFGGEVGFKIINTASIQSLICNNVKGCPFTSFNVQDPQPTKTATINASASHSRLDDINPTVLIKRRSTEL

[18] = target: T3, Prostaglandin G/H synthase 2; test: Inhibitory concentration against l503F mutant murine Prostaglandin G/H synthase 2

Row | Compound | IC50 [1] [nM] | IC50 [2] [nM] | further results
1 | COc1ccc2c(c1)c(CC(=O)NC[C@@H](O)c1ccccc1)c(C)n2C(=O)c1ccc(Cl)cc1 | 47 | 56000 | –
2 | COc1ccc2c(c1)c(CC(=O)NCCCCCCO)c(C)n2C(=O)c1ccc(Cl)cc1 | 210 | > 63000 | –
3 | COc1ccc2c(c1)c(CC(=O)NN1CCC[C@H]1CO)c(C)n2C(=O)c1ccc(Cl)cc1 | 1800 | > 80000 | –
4 | COc1ccc2c(c1)c(CC(=O)NCCCCO)c(C)n2C(=O)c1ccc(Cl)cc1 | 280 | 86000 | –
5 | COc1ccc2c(c1)c(CC(=O)N[C@@H](CO)CC(C)C)c(C)n2C(=O)c1ccc(Cl)cc1 | 500 | > 63000 | –
6 | COc1ccc2c(c1)c(CC(=O)NC(C)(C)CO)c(C)n2C(=O)c1ccc(Cl)cc1 | 190 | 800 | –
7 | COC[C@H](C)NC(=O)Cc1c(C)n(C(=O)c2ccc(Cl)cc2)c2ccc(OC)cc12 | 240 | > 60000 | –
8 | COc1ccc2c(c1)c(CC(=O)N[C@H](CO)Cc1ccccc1)c(C)n2C(=O)c1ccc(Cl)cc1 | 85 | < 3900 | –
9 | CC[C@@H](CO)NC(=O)Cc1c(C)n(C(=O)c2ccc(Cl)cc2)c2ccc(OC)cc12 | 280 | 350 | –
10 | COc1ccc2c(c1)c(CC(=O)NC[C@H](O)c1ccccc1)c(C)n2C(=O)c1ccc(Cl)cc1 | 210 | > 63000 | –
11 | COc1ccc2c(c1)c(CC(=O)N[C@H](CO)CCSC)c(C)n2C(=O)c1ccc(Cl)cc1 | 1000 | 2300 | –
12 | CCC(C)[C@@H](CO)NC(=O)Cc1c(C)n(C(=O)c2ccc(Cl)cc2)c2ccc(OC)cc12 (stereo not given in full) | 110 | 480 | –
13 | COC[C@@H](C)NC(=O)Cc1c(C)n(C(=O)c2ccc(Cl)cc2)c2ccc(OC)cc12 | 140 | 6800 | –
14 | COc1ccc2c(c1)c(CC(=O)N[C@H](CO)c1ccccc1)c(C)n2C(=O)c1ccc(Cl)cc1 | 85 | < 1300 | –
15 | COc1ccc2c(c1)c(CC(=O)N[C@@H](CO)c1ccccc1)c(C)n2C(=O)c1ccc(Cl)cc1 | 440 | 47000 | –
16 | COc1ccc2c(c1)c(CC(=O)N[C@H](CO)C(C)C)c(C)n2C(=O)c1ccc(Cl)cc1 | 370 | 400 | –
17 | COc1ccc2c(c1)c(CC(=O)N[C@@H](CO)CCSC)c(C)n2C(=O)c1ccc(Cl)cc1 | 250 | 51000 | –
18 | COc1ccc2c(c1)c(CC(=O)N[C@H](C)CO)c(C)n2C(=O)c1ccc(Cl)cc1 | 170 | 33000 | IC50 [3]: 690 nM; IC50 [4]: 290 nM; IC50 [5]: 570 nM; IC50 [6]: 200 nM; IC50 [7]: 240 nM; IC50 [8]: 560 nM; IC50 [9]: 325 nM; IC50 [10]: 250 nM; IC50 [11]: 90 nM; IC50 [12]: 50 nM; IC50 [13]: 690 nM; IC50 [14]: 340 nM; IC50 [15]: 300 nM; IC50 [16]: 250 nM; IC50 [17]: 540 nM
19 | COc1ccc2c(c1)c(CC(=O)NC[C@H](C)O)c(C)n2C(=O)c1ccc(Cl)cc1 | 320 | 32000 | –
20 | COc1ccc2c(c1)c(CC(=O)N[C@@H](CO)C(C)C)c(C)n2C(=O)c1ccc(Cl)cc1 | 110 | > 63000 | –
21 | CC[C@H](CO)NC(=O)Cc1c(C)n(C(=O)c2ccc(Cl)cc2)c2ccc(OC)cc12 | 100 | 59000 | –
22 | COc1ccc2c(c1)c(CC(=O)N[C@@H](CO)Cc1ccccc1)c(C)n2C(=O)c1ccc(Cl)cc1 | 220 | > 50000 | –
23 | COc1ccc2c(c1)c(CC(=O)N[C@H](CO)CC(C)C)c(C)n2C(=O)c1ccc(Cl)cc1 | 170 | < 3900 | –
24 | COc1ccc2c(c1)c(CC(=O)NCCCO)c(C)n2C(=O)c1ccc(Cl)cc1 | 220 | 64000 | –
25 | COc1ccc2c(c1)c(CC(=O)N[C@@H](C)CO)c(C)n2C(=O)c1ccc(Cl)cc1 | 270 | 590 | IC50 [3]: 220 nM; IC50 [4]: 210 nM; IC50 [5]: 150 nM; IC50 [6]: 200 nM; IC50 [7]: 200 nM; IC50 [18]: 160 nM; IC50 [8]: 220 nM; IC50 [9]: 390 nM; IC50 [10]: 85 nM; IC50 [11]: 75 nM; IC50 [12]: 60 nM; IC50 [13]: 300 nM; IC50 [14]: 110 nM; IC50 [16]: 250 nM; IC50 [17]: 170 nM
26 | COc1ccc2c(c1)c(CC(=O)NN1CCC[C@@H]1CO)c(C)n2C(=O)c1ccc(Cl)cc1 | 1700 | > 80000 | –
27 | COc1ccc2c(c1)c(CC(=O)NCCCCCO)c(C)n2C(=O)c1ccc(Cl)cc1 | 290 | > 83000 | –
28 | COc1ccc2c(c1)c(CC(=O)NC[C@@H](C)O)c(C)n2C(=O)c1ccc(Cl)cc1 | 330 | 52000 | –
29 | CC[C@H](C)NC(=O)Cc1c(C)n(C(=O)c2ccc(Cl)cc2)c2ccc(OC)cc12 | 110 | 4700 | –
30 | CC[C@@H](C)NC(=O)Cc1c(C)n(C(=O)c2ccc(Cl)cc2)c2ccc(OC)cc12 | 130 | 180 | –
